{"source": "patent US20140221286A1", "about": "“SODIUM CHANNEL BLOCKERS REDUCE GLUCAGON SECRETION” (Gilead Sciences, Inc., priority 2011, published 2014)", "key": {"[1]": {"molecular_target": "hNaV1.7 (Homo sapiens, UniProt Q15858)", "sequence (Q15858 1-1977 isoform Q15858-3)": "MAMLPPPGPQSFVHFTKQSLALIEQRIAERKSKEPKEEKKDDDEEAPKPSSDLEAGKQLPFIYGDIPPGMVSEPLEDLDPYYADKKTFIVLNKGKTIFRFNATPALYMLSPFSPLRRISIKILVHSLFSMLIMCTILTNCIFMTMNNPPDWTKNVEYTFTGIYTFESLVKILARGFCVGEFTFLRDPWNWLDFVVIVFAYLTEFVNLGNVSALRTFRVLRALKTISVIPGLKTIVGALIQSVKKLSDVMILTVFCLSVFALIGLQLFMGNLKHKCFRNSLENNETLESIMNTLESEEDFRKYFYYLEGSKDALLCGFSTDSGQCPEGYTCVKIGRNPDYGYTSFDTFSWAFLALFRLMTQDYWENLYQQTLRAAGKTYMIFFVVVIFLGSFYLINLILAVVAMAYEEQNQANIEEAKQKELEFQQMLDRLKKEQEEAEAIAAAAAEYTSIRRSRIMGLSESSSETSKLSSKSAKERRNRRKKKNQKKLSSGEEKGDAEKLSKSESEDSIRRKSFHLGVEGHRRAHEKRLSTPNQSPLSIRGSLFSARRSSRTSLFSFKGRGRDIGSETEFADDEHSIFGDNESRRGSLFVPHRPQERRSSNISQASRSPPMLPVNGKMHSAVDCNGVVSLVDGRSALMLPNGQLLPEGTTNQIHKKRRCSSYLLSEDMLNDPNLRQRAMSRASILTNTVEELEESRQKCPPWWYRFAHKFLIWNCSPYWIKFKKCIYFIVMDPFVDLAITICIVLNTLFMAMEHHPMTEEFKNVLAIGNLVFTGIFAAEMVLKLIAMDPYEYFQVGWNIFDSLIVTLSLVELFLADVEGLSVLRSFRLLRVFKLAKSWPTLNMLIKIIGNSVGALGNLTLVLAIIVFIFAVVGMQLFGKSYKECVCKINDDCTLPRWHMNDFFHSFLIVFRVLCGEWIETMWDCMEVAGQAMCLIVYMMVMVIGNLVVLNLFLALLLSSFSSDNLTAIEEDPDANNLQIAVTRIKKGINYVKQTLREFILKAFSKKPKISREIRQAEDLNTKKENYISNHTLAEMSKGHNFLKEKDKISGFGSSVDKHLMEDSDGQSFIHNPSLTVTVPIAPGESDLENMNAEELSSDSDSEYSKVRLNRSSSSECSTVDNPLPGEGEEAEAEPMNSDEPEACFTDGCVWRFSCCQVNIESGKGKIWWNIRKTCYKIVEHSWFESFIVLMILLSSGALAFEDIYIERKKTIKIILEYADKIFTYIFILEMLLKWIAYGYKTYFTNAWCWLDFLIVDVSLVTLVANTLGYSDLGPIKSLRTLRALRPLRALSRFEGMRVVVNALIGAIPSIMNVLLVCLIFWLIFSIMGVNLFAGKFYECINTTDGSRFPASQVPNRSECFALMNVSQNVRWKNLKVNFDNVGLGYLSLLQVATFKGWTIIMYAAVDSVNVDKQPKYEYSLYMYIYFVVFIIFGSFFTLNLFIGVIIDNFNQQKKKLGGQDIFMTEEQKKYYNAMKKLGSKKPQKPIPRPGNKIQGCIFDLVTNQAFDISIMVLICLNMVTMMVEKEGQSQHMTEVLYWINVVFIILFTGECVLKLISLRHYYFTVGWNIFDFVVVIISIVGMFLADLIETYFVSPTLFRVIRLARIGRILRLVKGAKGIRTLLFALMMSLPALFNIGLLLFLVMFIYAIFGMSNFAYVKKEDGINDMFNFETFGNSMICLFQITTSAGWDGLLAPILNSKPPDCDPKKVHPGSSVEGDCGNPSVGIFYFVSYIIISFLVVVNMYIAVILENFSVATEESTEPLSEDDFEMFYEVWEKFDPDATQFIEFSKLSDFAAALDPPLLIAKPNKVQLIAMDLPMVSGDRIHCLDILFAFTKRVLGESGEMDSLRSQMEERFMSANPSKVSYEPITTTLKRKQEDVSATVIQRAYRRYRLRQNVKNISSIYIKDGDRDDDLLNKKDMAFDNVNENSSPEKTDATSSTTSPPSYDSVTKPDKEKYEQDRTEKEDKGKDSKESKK", "sequence (Q07699 19-218 partner)": "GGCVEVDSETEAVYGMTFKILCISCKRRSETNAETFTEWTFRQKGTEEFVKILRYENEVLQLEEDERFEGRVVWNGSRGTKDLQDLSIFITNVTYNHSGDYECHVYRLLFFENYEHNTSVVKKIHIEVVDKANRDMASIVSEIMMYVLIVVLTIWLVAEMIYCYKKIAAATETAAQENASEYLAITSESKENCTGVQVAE", "test": "Voltage-dependent block (VDB) of hNaV1.7, QPatch whole-cell voltage-clamp in HEK-293 cells", "format": "cell-based", "conditions": "8 s prepulse to −60 mV; at a given concentration (not given)", "experimental": "Voltage-dependent block (VDB) of […] was determined by whole-cell voltage-clamp recordings of sodium current using a QPatch 16× automated electrophysiological system in HEK 293 cells overexpressing Nav 1.3 and Nav 1.7 sodium channels, respectively. VDB of peak current was measured using an 8 s conditioning prepulse (to -55 mV for NaV1.3 and to −60 mV for […]) followed by a test pulse (0 mV, 20 ms). Currents are normalized to the peak current recorded in the absence of drug and expressed as percent inhibition. […] Glucagon secretion in the cells was induced by the treatment with veratridine at 30 μM for 1 hour in Krebs-Ringer buffer containing 0.1% BSA. Percent inhibition of glucagon secretion by Na channel blockers was calculated from the reduction of veratridine-induced glucagon secretion in the absence of drug.\nThe cells were continuously maintained in a humidified, 5% CO2 atmosphere at 37° C. in MEM growth medium supplemented with 10% FBS, 2 mM L-glutamine, 100 U/mL penicillin, 100 μg/mL streptomycin, 0.6 mg/mL G418 and 2 μg/mL blastocydin.\nWhole-cell voltage-clamp recordings were used to measure the activity of test compounds against hNaV1.3 and hNaV1.7. Sodium currents were recorded at room temperature using a QPatch 16× automated electrophysiological system (Sophion Bioscience, Copenhagen, Denmark). Cells were washed with PBS and then incubated with Detachin for 2 minutes at room temperature. Cells were then resuspended in growth media, pelleted by centrifugation and resuspended in CHO-S-SFM II serum free media supplemented with 100 U/mL penicillin, 100 μg/mL streptomycin and 10 mM HEPES. The cells were allowed to recover for 30 min at room temperature with constant stirring and then loaded into the QPatch cell holder.\nThe cells were loaded into primed single hole (2 MΩ) large QPlates and the whole-cell configuration was established using the default protocol. Cells were allowed to stabilize for 10 min after establishment of the whole-cell configuration before current was measured. […] All currents are low-pass Bessel filtered at 5 kHz and digitized at 50 kHz.\nSpecific voltage-clamp protocols assessing voltage-dependent block (VDB, also termed state-dependent block) are used. VDB of peak current was measured following an 8 s conditioning prepulse (to -55 mV for NaV1.3 and to −60 mV for NaV1.7) followed by a test pulse to 0 mV (20 ms). An interpulse (−120 mV, 10 ms) was used to recover non-drug bound channels from fast inactivation. The prepulse potential was determined by the steady-state inactivation curves for NaV1.3 and NaV1.7. […] Multiple applications of drug were used to ensure complete solution exchange and the cells were allowed to stabilize in the drug containing solution for two minutes. Currents were normalized to the peak current recorded in the absence of drug and expressed as percent inhibition."}, "[2]": {"tested_on": "peak Na+ current (INa) in rat isolated pancreatic α-cells", "test": "Peak Na+ current (INa) in isolated pancreatic α-cells, perforated patch-clamp", "format": "cell-based", "experimental": "Acutely isolated pancreatic islets were allowed to recover overnight at 37° C./5% CO2 in Islet Media (RMPI 1640 supplemented with 10 mM HEPES, 1 mM sodium pyruvate, 10% FBS, 100 U/mL penicillin, 100 μg/mL streptomycin, 2 mM L-glutamine). The islets were resuspended and then centrifuged for 3 minutes at 200×g. The supernatant was discarded and 20 mL of filtered DPBS-EDTA was added (DPBS without Ca and Mg, 3 mM EDTA (G Biosciences), 0.5% BSA (Sigma), 1.5 mM dextrose (Sigma). The islets were incubated for 3 minutes at 37° C./5% CO2 and then centrifuged for 3 minutes at 200×g. The pellet was resuspended in 5 mL of pre-warmed Accutase (Sigma) and transferred into a 60 mm suspension culture dish and incubated for 3 minutes at 37° C./5% CO2. The digested islets were centrifuged for 3 minutes at 200×g to remove the accutase and the pellet was resuspended in 20 mL of room temperature DPBS-EDTA as defined above but with BSA increased to 4%. The digested islets were gently triturated 10 times with a flamed, glass Pasteur pipette and the suspension was then applied to a […] cell strainer. The resulting single cell suspension was centrifuged for 3 minutes at 200×g and the cells were resuspended in 2 mL of pre-warmed Islet Media. The number of live cells was counted and diluted to 1×10^5 with Islet Media. […]\nMembrane potential and ion channel currents were recorded 24-72 hours after dispersion using the perforated patch configuration. […] Series resistance (Rs) was monitored using a voltage step from −70 mV to 0 mV (5 ms, 0.5 Hz) and was allowed to stabilize prior to beginning the experiment (Rs<30 MOhm).\nThe identity of the α-cell was confirmed using cell size (membrane capacitance <6 pF) and the presence of electrical activity in low (3 mM) extracellular glucose, which are hallmarks of dispersed α-cells. […] All recordings were made using pClamp 10.2 and were analyzed using Microsoft Excel 2003, Graphpad Prism7 or OriginPro7.\nRecordings of ionic currents were made at 32° C. […] INa was measured using a voltage step to 0 mV (20 ms, 0.2 Hz) from a holding potential of either −70 mV or −90 mV. […]"}}, "data": [{"smiles": "COc1ccccc1OCC(O)CN1CCN(CC(=O)Nc2c(C)cccc2C)CC1", "note": "(racemic) [Ranolazine, ±-N-(2,6-dimethylphenyl)-4-[2-hydroxy-3-(2-methoxyphenoxy)-propyl]-1-piperazineacetamide]", "values": [{"measurement": "hNav1.7 VDB % Inhibition", "setting": "[1]", "value": 17.23, "unit": "%"}, {"measurement": "block of peak INa", "setting": "[2]; 10 μM, holding potential −70 mV", "value": 25, "unit": "%"}, {"measurement": "block of peak INa", "setting": "[2]; 10 μM, holding potential −90 mV", "value": 10, "unit": "%"}]}, {"smiles": "FC(F)(F)Oc1ccc(-c2ccc3nnc(C(F)(F)F)n3c2)cc1", "note": "[Compound A, 6-(4-(trifluoromethoxy)phenyl)-3-(trifluoromethyl)-[1,2,4]triazolo[4,3-α]pyridine]", "values": [{"measurement": "hNav1.7 VDB % Inhibition", "setting": "[1]", "value": 87.17, "unit": "%"}, {"measurement": "block of peak INa", "setting": "[2]; 1 μM, at −90 and -70 mV", "value": 40}]}]}
